According to ChEMBL document CHEMBL1141195, “Carbonic anhydrase inhibitors. The mitochondrial isozyme VB as a new target for sulfonamide and sulfamate inhibitors” (J Med Chem, 2005):

Assays:
[1] = molecular target: Carbonic anhydrase 5A, mitochondrial (Homo sapiens, UniProt P35218)
[2] = molecular target: Carbonic anhydrase 5B, mitochondrial (Homo sapiens, UniProt Q9Y2D0)
Carbonic anhydrase 5B, mitochondrial, sequence (Q9Y2D0 whole entry): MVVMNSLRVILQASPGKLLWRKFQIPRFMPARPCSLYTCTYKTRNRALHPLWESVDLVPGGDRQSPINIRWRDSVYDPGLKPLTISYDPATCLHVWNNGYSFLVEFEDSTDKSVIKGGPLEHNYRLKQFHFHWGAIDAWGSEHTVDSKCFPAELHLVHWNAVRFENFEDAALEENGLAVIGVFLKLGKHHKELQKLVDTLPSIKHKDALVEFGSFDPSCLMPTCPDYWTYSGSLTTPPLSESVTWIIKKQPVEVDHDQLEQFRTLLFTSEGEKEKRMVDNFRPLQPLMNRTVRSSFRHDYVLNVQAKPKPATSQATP

Carbonic anhydrase 5A, mitochondrial, sequence (P35218 whole entry): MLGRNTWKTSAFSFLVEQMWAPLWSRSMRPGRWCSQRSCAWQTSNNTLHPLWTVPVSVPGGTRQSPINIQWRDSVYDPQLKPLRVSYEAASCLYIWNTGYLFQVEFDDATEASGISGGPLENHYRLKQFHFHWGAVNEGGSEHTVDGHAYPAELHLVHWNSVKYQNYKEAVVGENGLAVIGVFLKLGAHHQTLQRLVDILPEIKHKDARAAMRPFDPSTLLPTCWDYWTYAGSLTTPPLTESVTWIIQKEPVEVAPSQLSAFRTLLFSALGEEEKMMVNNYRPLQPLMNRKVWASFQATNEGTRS

SMILES	Ki [1]	Ki [2]
NNc1ccccc1S(N)(=O)=O	9.6 µM	3.4 µM
Nc1nnc(S(N)(=O)=O)s1	2.3 µM	2.15 µM
Nc1ccc(S(=O)(=O)NCc2ccc(S(N)(=O)=O)cc2)cc1	0.176 µM	0.024 µM
Nc1cc(Cl)c(S(N)(=O)=O)cc1S(N)(=O)=O	–	6.21 µM
Nc1ccc(S(N)(=O)=O)cc1I	9.4 µM	3.3 µM
Nc1ccc(S(=O)(=O)Nc2nnc(S(N)(=O)=O)s2)cc1	0.034 µM	0.03 µM
NS(=O)(=O)c1nnc(-c2ccccc2Cl)s1	0.043 µM	0.03 µM
Nc1nccc(Nc2ccc(S(N)(=O)=O)cc2)n1	17 µM	10.2 µM
NS(=O)(=O)c1nc2ccc(O)cc2s1	0.054 µM	0.041 µM
Nc1ccccc1S(N)(=O)=O	15.3 µM	9.56 µM
Nc1ccc(S(N)(=O)=O)cc1Br	7.6 µM	3.54 µM
Cn1nc(S(N)(=O)=O)sc1=N	2.16 µM	2.08 µM
NS(=O)(=O)c1ccc(CCO)cc1	8.7 µM	7 µM
Nc1ccc(S(N)(=O)=O)cc1F	9.3 µM	4.22 µM
NS(=O)(=O)c1ccc(CO)cc1	9.3 µM	7.45 µM
NCCc1ccc(S(N)(=O)=O)cc1	42.4 µM	8.95 µM
Nc1ccc(S(N)(=O)=O)cc1Cl	7.4 µM	4.3 µM
Nc1ccc(S(=O)(=O)NCCc2ccc(S(N)(=O)=O)cc2)cc1	0.121 µM	0.042 µM
NNc1ccc(S(N)(=O)=O)cc1	7.7 µM	3.5 µM
NS(=O)(=O)c1ccc(S(=O)(=O)Nc2cccc3c(Cl)c[nH]c23)cc1	0.079 µM	0.023 µM
Nc1cc(C(F)(F)F)c(S(N)(=O)=O)cc1S(N)(=O)=O [2,4-DISULFAMYLTRIFLUOROMETHYLANILINE]	–	6.56 µM
CCN[C@H]1CN(CCCOC)S(=O)(=O)c2sc(S(N)(=O)=O)cc21 [BRINZOLAMIDE]	0.05 µM	0.03 µM
NS(=O)(=O)c1ccc(C(=O)O)cc1 [CARZENIDE]	2.65 µM	1.56 µM
NCc1ccc(S(N)(=O)=O)cc1 [MAFENIDE]	27.6 µM	12.3 µM
Cc1ccc(S(N)(=O)=O)cc1 [P-TOLUENESULFONAMIDE]	4.7 µM	2.43 µM
Nc1ccc(S(N)(=O)=O)cc1 [SULFANILAMIDE]	32 µM	–
CC1(C)O[C@@H]2[C@@H](CO[C@@]3(COS(N)(=O)=O)OC(C)(C)O[C@@H]23)O1 [TOPIRAMATE]	0.063 µM	0.03 µM
